By inhibition is commonly meant the drop in the measured response relative to a control, in per cent.

Holding throughout (test): biochemical
Common to all, as to set-up: KINOMEscan competition binding panel (Eurofins DiscoverX), single concentration, percent inhibition
Holding throughout (details): read-out: 15 at 1 µM % inhibition

The target of assay [1] is IRAK4 (Homo sapiens, UniProt Q9NWZ3). The method, boiled down:
(§1)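 Compounds were submitted at 1 µM to a KINOMEscan assay covering more than 400 human kinases. The screen served to define the selectivity profile.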

Assay [2] deals with EIF2AK1 (Homo sapiens, UniProt Q9BQI3). The method, boiled down:
as §1

For assay [3], the target named is T1, JNK3 (Homo sapiens, UniProt P53779).
T1 construct: gene MAPK10
The method, boiled down: as §1

Assay [4] has as its target PLK2 (Homo sapiens, UniProt Q9NYY3). The method, boiled down:
as §1

The target of assay [5] is DDR1 (Homo sapiens, UniProt Q08345). The method, boiled down: as §1
The target in assay [6] is BUB1 (Homo sapiens, UniProt O43683). The method, boiled down: as §1
Assay [7] deals with CAMK2B (Homo sapiens, UniProt Q13554). The method, boiled down:
as §1

Assay [8] has as its target NEK7 (Homo sapiens, UniProt Q8TDX7). The method, boiled down: as §1
In assay [9] the target is CAMK1G (Homo sapiens, UniProt Q96NX5). The method, boiled down: as §1
In assay [10] the target is TAOK3 (Homo sapiens, UniProt Q9H2K8). The method, boiled down:
as §1

For assay [11], the target named is CLK3 (Homo sapiens, UniProt P49761). The method, boiled down:
as §1

In assay [12] the target is TLK2 (Homo sapiens, UniProt Q86UE8). The method, boiled down: as §1
The target in assay [13] is NEK3 (Homo sapiens, UniProt P51956). The method, boiled down: as §1
Assay [14] addresses T2, RSK4(Kin.Dom.1-N-terminal) (Homo sapiens, UniProt Q9UK32).
T2 construct: gene RPS6KA6; Kin.Dom.1-N-terminal
The method, boiled down: as §1

The target of assay [15] is T3, YANK1 (Homo sapiens, UniProt Q8WU08).
T3 construct: gene STK32A
The method, boiled down:
as §1

The target of assay [16] is NEK1 (Homo sapiens, UniProt Q96PY6). The method, boiled down: as §1
Assay [17] has as its target T4, ABL1(F317I)-nonphosphorylated (Homo sapiens, UniProt P00519, F317I).
T4 construct: nonphosphorylated
The method, boiled down:
as §1

For assay [18], the target named is AURKB (Homo sapiens, UniProt Q96GD4). The method, boiled down: as §1
In assay [19] the target is T5, ABL1(Q252H)-nonphosphorylated (Homo sapiens, UniProt P00519, Q252H).
T5 construct: nonphosphorylated
The method, boiled down:
as §1

The target in assay [20] is EGFR(E746-A750del) (Homo sapiens, UniProt P00533, DEL746-750). The method, boiled down: as §1
Assay [21] has as its target FES (Homo sapiens, UniProt P07332). The method, boiled down: as §1
The target of assay [22] is T6, CDC2L5 (Homo sapiens, UniProt Q14004).
T6 construct: gene CDK13
The method, boiled down: as §1

Assay [23] deals with TAOK2 (Homo sapiens, UniProt Q9UL54). The method, boiled down:
as §1

Assay [24] concerns the target T7, PKAC-beta (Homo sapiens, UniProt P22694).
T7 construct: gene PRKACB
The method, boiled down: as §1

NEK7, sequence (Q8TDX7 whole entry): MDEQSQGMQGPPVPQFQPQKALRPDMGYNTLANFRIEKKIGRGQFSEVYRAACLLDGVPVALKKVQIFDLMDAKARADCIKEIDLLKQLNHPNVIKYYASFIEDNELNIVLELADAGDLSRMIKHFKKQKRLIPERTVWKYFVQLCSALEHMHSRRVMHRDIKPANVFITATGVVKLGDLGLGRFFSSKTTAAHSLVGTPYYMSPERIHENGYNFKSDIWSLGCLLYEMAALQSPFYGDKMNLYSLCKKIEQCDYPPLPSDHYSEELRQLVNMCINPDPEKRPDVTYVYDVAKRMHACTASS
IRAK4, sequence (Q9NWZ3 whole entry): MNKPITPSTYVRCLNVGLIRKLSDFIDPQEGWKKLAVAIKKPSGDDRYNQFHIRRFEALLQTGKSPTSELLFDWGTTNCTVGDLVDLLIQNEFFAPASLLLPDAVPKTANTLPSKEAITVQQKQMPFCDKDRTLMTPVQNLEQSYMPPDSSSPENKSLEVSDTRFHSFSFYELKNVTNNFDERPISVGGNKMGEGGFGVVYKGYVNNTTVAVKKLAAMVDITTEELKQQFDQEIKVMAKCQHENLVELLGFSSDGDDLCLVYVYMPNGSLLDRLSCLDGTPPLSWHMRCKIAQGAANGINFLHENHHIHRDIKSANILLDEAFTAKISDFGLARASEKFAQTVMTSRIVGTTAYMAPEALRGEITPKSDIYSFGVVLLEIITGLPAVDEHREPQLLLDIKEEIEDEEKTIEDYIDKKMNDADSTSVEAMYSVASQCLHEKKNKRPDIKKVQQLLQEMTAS
AURKB, sequence (Q96GD4 whole entry): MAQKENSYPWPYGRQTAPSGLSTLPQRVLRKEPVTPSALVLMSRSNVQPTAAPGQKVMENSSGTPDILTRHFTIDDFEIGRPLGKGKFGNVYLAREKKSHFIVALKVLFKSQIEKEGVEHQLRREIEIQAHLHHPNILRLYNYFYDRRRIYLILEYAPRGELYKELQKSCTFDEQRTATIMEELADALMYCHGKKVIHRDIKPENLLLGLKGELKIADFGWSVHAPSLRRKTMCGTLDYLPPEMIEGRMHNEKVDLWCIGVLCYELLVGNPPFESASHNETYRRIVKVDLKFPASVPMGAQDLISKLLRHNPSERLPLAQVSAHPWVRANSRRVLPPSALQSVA
EGFR(E746-A750del), sequence (P00533 with tags, fused parts or gaps DEL746-750): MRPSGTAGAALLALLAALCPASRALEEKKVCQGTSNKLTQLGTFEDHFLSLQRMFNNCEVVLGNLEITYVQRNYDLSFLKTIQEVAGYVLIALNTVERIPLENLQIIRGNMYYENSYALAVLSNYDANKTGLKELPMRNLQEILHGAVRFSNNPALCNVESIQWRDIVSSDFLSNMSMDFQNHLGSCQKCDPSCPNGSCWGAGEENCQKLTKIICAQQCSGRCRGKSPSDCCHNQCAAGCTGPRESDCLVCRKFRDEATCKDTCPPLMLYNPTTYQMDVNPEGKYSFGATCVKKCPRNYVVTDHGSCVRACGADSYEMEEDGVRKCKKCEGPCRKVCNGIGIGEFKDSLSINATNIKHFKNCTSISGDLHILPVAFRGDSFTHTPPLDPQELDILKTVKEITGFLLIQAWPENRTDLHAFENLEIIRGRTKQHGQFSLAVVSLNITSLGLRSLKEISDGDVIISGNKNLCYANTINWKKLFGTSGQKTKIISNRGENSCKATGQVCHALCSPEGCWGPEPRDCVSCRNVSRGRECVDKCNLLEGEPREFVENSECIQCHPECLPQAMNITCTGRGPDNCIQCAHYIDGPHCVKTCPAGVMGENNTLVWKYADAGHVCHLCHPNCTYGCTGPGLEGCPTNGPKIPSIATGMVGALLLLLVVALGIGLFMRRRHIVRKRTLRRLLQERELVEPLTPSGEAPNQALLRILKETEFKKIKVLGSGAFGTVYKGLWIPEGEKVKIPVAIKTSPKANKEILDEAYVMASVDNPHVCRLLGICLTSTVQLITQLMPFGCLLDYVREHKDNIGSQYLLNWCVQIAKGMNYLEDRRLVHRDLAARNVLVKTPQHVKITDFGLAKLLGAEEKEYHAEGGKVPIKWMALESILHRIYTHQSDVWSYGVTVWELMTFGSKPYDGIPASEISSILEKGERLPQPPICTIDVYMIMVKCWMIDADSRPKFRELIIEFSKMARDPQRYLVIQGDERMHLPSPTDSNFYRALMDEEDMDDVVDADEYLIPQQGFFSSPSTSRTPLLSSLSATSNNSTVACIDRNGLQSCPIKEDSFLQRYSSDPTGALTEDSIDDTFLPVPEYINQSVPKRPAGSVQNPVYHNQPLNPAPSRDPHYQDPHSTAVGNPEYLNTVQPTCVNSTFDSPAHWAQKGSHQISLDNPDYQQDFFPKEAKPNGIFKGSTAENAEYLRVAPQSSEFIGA
CAMK2B, sequence (Q13554 whole entry): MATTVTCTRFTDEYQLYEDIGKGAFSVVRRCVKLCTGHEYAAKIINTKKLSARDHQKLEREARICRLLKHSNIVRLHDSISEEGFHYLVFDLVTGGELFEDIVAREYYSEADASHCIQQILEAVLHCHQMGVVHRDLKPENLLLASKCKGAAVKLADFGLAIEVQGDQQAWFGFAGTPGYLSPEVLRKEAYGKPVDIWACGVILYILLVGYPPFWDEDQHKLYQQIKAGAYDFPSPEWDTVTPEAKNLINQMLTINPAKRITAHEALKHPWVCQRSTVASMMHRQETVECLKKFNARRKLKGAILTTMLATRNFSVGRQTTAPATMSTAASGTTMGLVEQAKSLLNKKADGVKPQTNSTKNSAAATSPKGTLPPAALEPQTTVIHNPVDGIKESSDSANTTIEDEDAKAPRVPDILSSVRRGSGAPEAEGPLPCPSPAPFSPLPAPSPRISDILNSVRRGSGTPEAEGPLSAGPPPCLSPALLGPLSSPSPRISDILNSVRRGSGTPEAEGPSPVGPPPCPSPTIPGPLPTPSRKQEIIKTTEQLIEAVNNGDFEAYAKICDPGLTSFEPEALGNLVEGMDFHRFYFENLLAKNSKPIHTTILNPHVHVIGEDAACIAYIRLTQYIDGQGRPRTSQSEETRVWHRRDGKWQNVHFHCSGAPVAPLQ
TAOK3, sequence (Q9H2K8 whole entry): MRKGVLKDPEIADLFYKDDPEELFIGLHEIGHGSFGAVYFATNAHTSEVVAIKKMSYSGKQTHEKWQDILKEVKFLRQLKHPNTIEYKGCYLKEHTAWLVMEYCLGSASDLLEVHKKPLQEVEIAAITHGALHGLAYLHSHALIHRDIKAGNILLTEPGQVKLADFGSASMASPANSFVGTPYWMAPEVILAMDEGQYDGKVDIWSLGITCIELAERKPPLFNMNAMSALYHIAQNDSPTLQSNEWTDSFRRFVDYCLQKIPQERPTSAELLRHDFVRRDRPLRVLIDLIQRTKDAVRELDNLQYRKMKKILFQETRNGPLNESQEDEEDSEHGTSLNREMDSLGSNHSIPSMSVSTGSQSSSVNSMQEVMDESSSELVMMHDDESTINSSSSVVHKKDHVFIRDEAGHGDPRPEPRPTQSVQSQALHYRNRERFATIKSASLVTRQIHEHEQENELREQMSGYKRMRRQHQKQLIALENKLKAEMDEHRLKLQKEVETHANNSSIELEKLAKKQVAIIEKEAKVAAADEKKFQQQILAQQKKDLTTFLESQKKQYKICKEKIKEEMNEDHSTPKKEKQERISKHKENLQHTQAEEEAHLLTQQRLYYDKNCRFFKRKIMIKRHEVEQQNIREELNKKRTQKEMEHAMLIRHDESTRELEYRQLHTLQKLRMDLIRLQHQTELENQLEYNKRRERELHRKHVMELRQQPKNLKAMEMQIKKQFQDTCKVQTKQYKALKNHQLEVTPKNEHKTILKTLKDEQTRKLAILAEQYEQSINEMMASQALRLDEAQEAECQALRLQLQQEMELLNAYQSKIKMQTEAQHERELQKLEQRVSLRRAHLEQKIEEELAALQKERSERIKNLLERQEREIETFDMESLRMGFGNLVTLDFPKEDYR
PLK2, sequence (Q9NYY3 whole entry): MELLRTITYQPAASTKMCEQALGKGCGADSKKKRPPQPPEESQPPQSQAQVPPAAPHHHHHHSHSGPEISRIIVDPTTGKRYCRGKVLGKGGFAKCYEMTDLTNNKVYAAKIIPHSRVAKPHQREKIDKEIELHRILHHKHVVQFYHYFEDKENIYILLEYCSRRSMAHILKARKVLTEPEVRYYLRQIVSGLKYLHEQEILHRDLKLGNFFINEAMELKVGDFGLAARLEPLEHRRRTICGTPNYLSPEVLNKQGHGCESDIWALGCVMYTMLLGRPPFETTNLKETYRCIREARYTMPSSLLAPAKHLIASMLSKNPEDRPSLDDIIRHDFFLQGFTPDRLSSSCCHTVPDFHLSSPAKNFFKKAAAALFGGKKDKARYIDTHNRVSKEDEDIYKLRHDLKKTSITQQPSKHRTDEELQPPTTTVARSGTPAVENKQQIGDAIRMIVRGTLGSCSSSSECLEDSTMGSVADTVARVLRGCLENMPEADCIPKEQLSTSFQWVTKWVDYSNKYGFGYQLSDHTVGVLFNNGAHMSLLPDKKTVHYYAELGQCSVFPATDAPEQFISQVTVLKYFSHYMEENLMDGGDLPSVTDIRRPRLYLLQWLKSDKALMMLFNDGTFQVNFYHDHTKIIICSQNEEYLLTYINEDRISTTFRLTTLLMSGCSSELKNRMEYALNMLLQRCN
CAMK1G, sequence (Q96NX5 whole entry): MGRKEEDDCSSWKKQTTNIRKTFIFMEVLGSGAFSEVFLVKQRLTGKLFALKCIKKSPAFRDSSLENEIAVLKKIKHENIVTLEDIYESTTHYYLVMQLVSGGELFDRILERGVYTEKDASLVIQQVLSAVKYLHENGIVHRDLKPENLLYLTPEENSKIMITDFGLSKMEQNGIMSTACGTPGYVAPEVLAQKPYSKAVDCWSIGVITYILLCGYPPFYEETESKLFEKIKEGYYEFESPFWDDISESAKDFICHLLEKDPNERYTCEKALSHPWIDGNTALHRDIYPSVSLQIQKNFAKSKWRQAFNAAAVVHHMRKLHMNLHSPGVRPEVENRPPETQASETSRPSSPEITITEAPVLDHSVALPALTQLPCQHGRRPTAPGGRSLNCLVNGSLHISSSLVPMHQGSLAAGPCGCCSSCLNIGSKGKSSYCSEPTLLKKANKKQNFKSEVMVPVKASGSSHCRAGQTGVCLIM

On to `CNS(=O)(=O)c1ccc(N(C)C)c(Nc2nc(C)nc3cc(OC)c(OC)cc23)c1` [compound 15, 3-((6,7-dimethoxy-2-methylquinazolin-4-yl)amino)-4-(dimethylamino)-N-methylbenzenesulfonamide], for which the inhibition at 1 µM in assay [1] was 0%; in [2], 4%; in assay [3] it was 0%; in assay [4], 23%; in [5] it was 0%; in [6] it was 7%. Moreover, the inhibition at 1 µM turned out to be 0% in assay [7]; 2% in assay [8]; 0% in assay [9]; 16% in assay [10]; 0% in [11]; 0% in [12]. In addition, the inhibition at 1 µM in [13] was 0%; in [14], 30%; in assay [15], 0%; in assay [16], 1%; in assay [17], 17%; in [18], 3%. Moreover, the inhibition at 1 µM in assay [19] came out at 33%; in [20], 31%; in [21] it was 0%; in [22], 23%; in assay [23], 15%; in assay [24] it was 0%.

The values are drawn from publication PMC7180948, “New Insights into 4-Anilinoquinazolines as Inhibitors of Cardiac Troponin I–Interacting Kinase (TNNi3K)” (Molecules, 2020).
